For data set [1], the system named is mouse lymphatic fibroblast (MLF) cells. Briefly: X-chromosome reactivation assay (single molecule RNA FISH of X-linked mRNA) in MLF cells having silenced X genes. It counts as cell-based. The following applies: for reactivation of silenced X-chromosome gene Gpc4 (Gpc4 mRNA) compared with Scriptaid alone: in combination with one of the DNMT1 inhibitors 5-aza, 5-aza-2'-dc, RG108 or SGI-1027, FIGS. 7A-7B. On the procedure:
Coverslips from siRNA transfection or inhibitor treatment were fixed in Histochoice (Sigma) for 10 min, washed thoroughly in PBS, and dehydrated in ethanol for storage until FISH staining. Single molecule RNA Fluorescence in situ hybridization (FISH) experiments were done using QuantiGene ViewRNA ISH Cell Assay (Affymetrix) and QuantiGene ViewRNA ISH Cell 740 Module (Affymetrix) according to manufacturer's protocol. Specifically, cells fixed on coverslips were first permeabilized with Detergent Solution QC at room temperature for 5 min, and then incubated with desired mixture of probe set (Affymetrix) in Probe Set Diluent QF at 40° C. for 3 h, followed by incubated with PreAmplifier Mix at 40° C. for 30 min, Amplifier Mix at 40° C. for 30 min, and Label Probe Mix at 40° C. for 30 min sequentially. For DAPI staining, coverslips were incubated in 30 nM DAPI in PBS at room temperature for 15-20 min. Probe sets and conjugated fluorophores (excitation wavelengths) for FISH were TYPE 4-GPC4, MECP2, SMC1A (488 nm), TYPE 10-ATRX (740 nm), and TYPE 6-EMD (650 nm). Cells were stained for target mRNAs (e.g., X-linked Gpc4 mRNA, X-linked MeCP2 mRNA, or as indicated) and siRNA-targeted mRNA by FISH and imaged. Images were then analyzed using Matlab R2013b (described below). In the case of siRNA targeting, cells were selected if the copy number of the targeted mRNA was less than 30% of the level of the no siRNA treated cells and if they induced Xist expression. Within these cells, the copy number of target mRNAs were quantified using a peak finding method (described below) and compared across conditions. The mRNA levels were quantified for 50 individual cells. All image analysis was carried out using Matlab (version R2013b) utilizing built-in functions from the Image Processing toolbox. […] Once regional maxima were identified, the number of spots was counted for each cell. The percentage of X-reactivation is calculated by normalizing the average number of spots of each condition to the average number of spots in untreated cells, and subtracting the value by 1.

Data set [2] relates to human fibroblast cells. Put plainly: X chromosome reactivation (active PGK1 loci, MeCP2 mRNA) in human fibroblast cells having a silenced X chromosome. It counts as cell-based. The following applies: for percentage of reactivated human fibroblasts (active PGK1 loci) with treatment time: simultaneous treatment with 5-aza-2'-dc, 48 h, 72 h, 7 days, FIG. 7F; for activation of the silenced X chromosome: simultaneous treatment with DNMT1 inhibitor 5-aza-2'-dc, human fibroblast cells. On the procedure:
(§1) FIG. 7F is a graph of the percentage of reactivated cells (measured as the number of active phosphoglycerate kinase 1 (PGK1) loci for a population of 50 human fibroblast cells having a silenced X chromosome after the simultaneous treatment of DMSO (as a control), the DNMT1 inhibitor (5-aza-2-dc) and the HDAC inhibitor SAHA or RGFP966 for 48 hours (h), 72 hours, and 7 days as indicated, with the number of active PGK1 loci greater than 2 shown in grey, the number of PGK1 loci equal to 2 shown in orange, and the number of PGK1 loci equal to 1 shown in blue, according to embodiments of the present invention.
FIG. 7G is a graph quantifying the expression level of MeCP2 mRNA (relative to control) of reactivated human fibroblast cells having a silenced X chromosome after simultaneous treatment with DMSO (control), the DNMT1 inhibitor (5-aza-2-dc) and the HDAC inhibitor SAHA or RGFP966 for 7 days for a population of 50 cells, according to embodiments of the present invention.
(§2) Cells were stained for target mRNAs (e.g., X-linked Gpc4 mRNA, X-linked MeCP2 mRNA, or as indicated) and siRNA-targeted mRNA by FISH and imaged. Images were then analyzed using Matlab R2013b (described below). In the case of siRNA targeting, cells were selected if the copy number of the targeted mRNA was less than 30% of the level of the no siRNA treated cells and if they induced Xist expression. Within these cells, the copy number of target mRNAs were quantified using a peak finding method (described below) and compared across conditions. The mRNA levels were quantified for 50 individual cells.
The number of active X chromosomes was determined by RNA FISH with probes against the intronic region of Pgk1/PGK1 RNA using smFISH. The spots were then identified using a 2D peak finding algorithm that identifies local maximal signals within the cell. Once regional maxima were identified, the number of spots was counted for each cell. Cells were selected in the G1 phase of the cell cycle by co-immunostaining the cells with Cyclin E antibodies (Abcam; ab33911 for mouse cells; ab32103 for human cells) and selecting Cyclin E positive cells.

The subject of data set [3] is mouse post-mitotic neurons. Briefly: X chromosome reactivation (active PGK1 loci, MeCP2 mRNA) in mouse post-mitotic neurons having a silenced X chromosome. It counts as cell-based. Particulars: simultaneous treatment with DNMT1 inhibitor 5-aza-2'-dc. On the procedure:
as §1, with “7H” for “7F”, “mouse post-mitotic neuronal” for “human fibroblast”
FIG. 7I is a graph quantifying the expression level of MeCP2 mRNA in mouse post-mitotic neurons having a silenced X chromosome after simultaneous treatment with DMSO (control), the DNMT1 inhibitor (5-aza-2-dc) and the HDAC inhibitor SAHA or RGFP966 for 7 days for a population of 50 cells, with the relative expression calculated by normalizing reactivated female post-mitotic neurons to male post-mitotic neurons, according to embodiments of the present invention.
Cells were stained for target mRNAs (e.g., X-linked Gpc4 mRNA, X-linked MeCP2 mRNA, or as indicated) and siRNA-targeted mRNA by FISH and imaged. Images were then analyzed using Matlab R2013b (described below). […] The mRNA levels were quantified for 50 individual cells. […]

Data set [4] concerns human iPS-derived neurons. Put plainly: X chromosome reactivation (PGK1 and MeCP2 mRNA staining) in human iPS-derived neurons having a silenced X chromosome. It counts as cell-based. The following applies: simultaneous treatment with DNMT1 inhibitor 5-aza-2'-dc.
Text: FIG. 7K is a graph quantifying the expression level of MeCP2 mRNA in human iPSC-derived neurons having a silenced X chromosome after simultaneous treatment with the DNMT1 inhibitor (5-aza-2-dc) and the HDAC inhibitor SAHA for 7 days for a population of 50 cells, with the relative expression calculated by normalizing the neurons (two spots of active PGK1 loci) to non-reactivated (treated) neurons (one spot of active PGK1 locus), according to embodiments of the present invention.
as §2
The number of active X chromosomes was determined by RNA FISH with probes against the intronic region of Pgk1/PGK1 RNA using smFISH. […] Once regional maxima were identified, the number of spots was counted for each cell. […]

Data set [5] relates to mouse lymphatic fibroblast (MLF) cells. The following applies: 1 uM, FIG. 7E.
Protocol: With reference to FIG. 7E, MLF cells having a silenced X chromosome were assayed for reactivation of the Gpc4 gene after incubation with SAHA at 2 uM, RGFP966 at 3 uM, RG2833 (RGFP109) at 300 nM, PCI-24781 (Abexinostat) at 300 nM, CUDC-101 at 400 nM, Resminostat at 100 nM, Mocetinostat (MGCD0103) at 10 uM, HPOB (4-[(hydroxyamino)carbonyl]-N-(2-hydroxyethyl)-N-phenyl-benzeneacetamide) at 5 uM, Entinostat (MS0275) at 2 uM, Droxinostat at 20 uM, 4SC-202 at 2 uM, Trichostatin A (TSA) at 5 uM, Rocilinostat (ACY-1215) at 100 nM, Quisinostat (JNJ-26481585) at 100 nM, or Pracinostat (SB939) at 1 uM.
5,000 Mouse MLF cells were plated on a poly-D-lysine (Sigma) and 0.2% gelatin (Sigma)-coated #1.5 coverslip placed into wells of a 24-well plate containing HEK media (DMEM, 10% Gemini Benchmark FBS, 1×L-glutamine, 1× sodium pyruvate, 1×NEAA, lx Pen/Strep; Life Technologies unless otherwise indicated). After 16 hours, inhibitors were added into the media and incubated the cells for 48 hours. Unless, otherwise indicated, the inhibitors and the concentration used were: 5-Azacytidine (6 μM; Sigma, A2385), 5-Aza-2′-deoxycytidine (0.3 μM; Sigma, A3656), RG 108 (200 μM; Abcam, ab141013), Trichostatin A (5 μM; Sigma, T8552), and Scriptaid (100 nM; Sigma, S7817).

Entries after “also recorded” stand apart in the source; their conditions may differ.

On to `O=C(CCCCCN1C(=O)c2cccc3cccc(c23)C1=O)NO` [Scriptaid], for which the “reactivation of the Xist-dependent silent Gpc4 gene as measured by levels of Gpc4 mRNA” value in data set [1] (HDAC inhibitor alone, FIGS. 7A-7B) was “expression of Gpc4; also recorded: reactivation of the Xist-dependent silent Gpc4 gene”. The “reactivation of silenced X-chromosome gene Gpc4 (Gpc4 mRNA) compared with Scriptaid alone” value in data set [1] is listed as “reactivated to a higher level of reactivation”.

Turning to `CC(/C=C/C(=O)NO)=C\[C@@H](C)C(=O)c1ccc(N(C)C)cc1` [Trichostatin A], the “reactivation of silenced X-chromosome gene Gpc4 (Gpc4 mRNA) compared with Scriptaid alone” value in data set [1] is listed as “reactivated to a higher level of reactivation”.

For `Nc1cc(F)ccc1NC(=O)/C=C/c1cnn(C/C=C/c2ccccc2)c1` [RGFP966], the “percentage of reactivated human fibroblasts (active PGK1 loci) with treatment time” value in data set [2] was “increase in reactivation”. For the same molecule, the figures for the “activation of the silenced X chromosome” value in data set [2], in data set [3] and in data set [4] were “activation (or re-activation) of the X chromosome”, “activation of the X chromosome” and “activation of the X chromosome”, respectively.

Take `O=C(CCCCCCC(=O)Nc1ccccc1)NO` [SAHA]: the “percentage of reactivated human fibroblasts (active PGK1 loci) with treatment time” value in data set [2] was “increase in reactivation”. The results for the “activation of the silenced X chromosome” value in data set [2], in data set [3] and in data set [4] were “activation (or re-activation) of the X chromosome”, “activation of the X chromosome” and “activation of the X chromosome”, respectively.

`CCCCc1nc2cc(/C=C/C(=O)NO)ccc2n1CCN(CC)CC` [Pracinostat]: the “cytotoxicity (cell death)” value in data set [5] is “cytotoxic, causing cell death”.

The values above are taken from patent publication US11197881B2 (CALIFORNIA INSTITUTE OF TECHNOLOGY, priority 2016, dated 2021).
